Test results taken from patent US20230094545A1, “S1P RECEPTOR MODULATORS” (AKAAL PHARMA PTY LTD, priority 2020, published 2023).

Columns and labels:
[1] = single dose, 2 mg or lower doses; cited from earlier work
[2] = Solubility in water / precipitation in buffer; type: physicochemical
Description: To solubilize the free base in water the novel technology AvignaSOL (N,N-Dimethyl hexanamide; patent number: U.S. Pat. No. 9,186,338B2) and its higher derivatives such as octinamide, decamide which improve the absorption of various poorly soluble drugs was used. AvignaSOL as 1-70% ww % assisted the solubilization of free base as 1 gm/20 mL of water. The solubility of free base in water assisted its direct use in various formulation such as creams, gels, solutions which together with the permeation enhancing effect will be harnessed to improve skin penetration and/or bioavailability and in altering the pharmacokinetics and pharmacodynamics profile of free base.
The AvignaSOL having a log P of ˜1.6 hinder the release by increasing the hydrophobicity of the delivery system. […] The combination of compound of formula I with other ingredients including sustained release enhancer with or without AvignaSOL were prepared as novel formulation techniques to improve and/or alter the pharmacokinetics and pharmacodynamics profile of compound of Formula I.

[3] = biological target: T1, S1P1 receptor (Homo sapiens, UniProt P21453); conditions: Lucas et al; read-out: EC50 at S1P1 receptor in a GTPγS assay; cited from earlier work
[4] = biological target: T1, S1P1 receptor; conditions: cited from earlier work; for receptor degradation ability: Lucas et al; for activity v/s degradation margin: known S1P receptor modulators
[5] = cited from earlier work
[6] = tested on: EAE; assay: Animal model of multiple sclerosis (EAE induced with guinea pig MBP); type: in vivo, Lewis rats; conditions: EAE rats, oral every day until day 26
Description: The oral treatment with a compound of formula (I) was conducted in an animal model of multiple sclerosis. EAE was induced in female Lewis rats with guinea pig MBP (25 μg/rat).

T1 sequence (P21453 whole entry): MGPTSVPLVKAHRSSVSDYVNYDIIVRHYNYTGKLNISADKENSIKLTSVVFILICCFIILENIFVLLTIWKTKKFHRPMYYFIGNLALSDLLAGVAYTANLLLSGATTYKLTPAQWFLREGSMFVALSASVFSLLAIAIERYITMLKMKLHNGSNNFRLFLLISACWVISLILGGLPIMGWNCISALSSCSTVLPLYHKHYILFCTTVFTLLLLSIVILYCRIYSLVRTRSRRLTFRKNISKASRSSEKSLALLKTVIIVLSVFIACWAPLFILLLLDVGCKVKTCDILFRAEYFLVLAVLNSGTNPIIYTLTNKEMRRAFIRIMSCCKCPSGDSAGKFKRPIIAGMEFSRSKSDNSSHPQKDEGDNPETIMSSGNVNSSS

Q: With `CC(C)Oc1ncc(-c2nc(-c3cccc4c3ccn4CCCC(=O)O)no2)cc1Cl` [GSK2018682] as the compound, how does the lymphopenia [1] read?
A: minimal or no lymphopenia

Q: What about the “reduction in heart rate” value [1] of the same compound?
A: ≥ 10 beats

Q: Which solubility in water [2] does the source give for `CCCOc1ccc(-c2nc(-c3ccc4oc(C(N)(CO)CO)cc4c3)no2)cc1Cl` [compound of formula I free base] here?
A: insoluble in water

Q: What does the source list for `CCCCCCCCCCCCC/C=C/[C@@H](O)[C@@H](N)COP(=O)(O)O` [S1P]?
A: EC50 [3]: 1.2 nM; receptor degradation ability [4]: 302 nM

Q: For `CCC/N=C1\S/C(=C\c2ccc(OC[C@H](O)CO)c(Cl)c2)C(=O)N1c1ccccc1C` [Ponesimod], which “activity v/s degradation margin” value [4] is on record?
A: < 2

Q: With `CCCCCC(=O)N(C)C` [AvignaSOL, N,N-Dimethyl hexanamide] as the compound, how does the “log P” value [5] read?
A: ~1.6

Q: Which “activity v/s degradation margin” value [4] does the source give for `CCc1cc(/C(C)=N/OCc2ccc(C3CCCCC3)c(C(F)(F)F)c2)ccc1CN1CC(C(=O)O)C1` [BAF-312] here?
A: 2.95

Q: Which results are given for `CCCCCCCCc1ccc(CCC(N)(CO)CO)cc1` [FTY720]?
A: lymphopenia [6]: induced at a high level over a long-term period; receptor degradation ability [4]: 0.34 nM; activity v/s degradation margin [4]: 0.17
